Columns and labels:
[1] = test system: genetic markers related to neuroplasticity; assay: PBBI in rats: neuroplasticity mRNA arrays; type: in vivo
Source text: (§1) The unilateral frontal PBBI model, which mimics the ballistic dynamics of a bullet or fragment wound to the head (Williams, 2003; Williams, 2006), was induced by stereotactic insertion of a custom probe through the right frontal cortex. A temporary cavity was formed by the rapid inflation/deflation (i.e. <40 msec) of an elastic balloon attached to the end of the probe. The PBBI apparatus consisted of a computer-controlled hydraulic pressure generator (Mitre Corp McLean, Va.), a PBBI probe and a stereotaxic frame equipped with a custom-designed probe holder as previously described (Lu, 2009; Williams, 2003). The injury severity was determined by the size of the balloon under control of the computerized hydraulic pressure. The balloon diameter calibrated to 0.63 cm expansion represented 10% of the total rat brain volume thus expressing a 10% PBBI. All surgeries were done under anaesthesia. Groups tested: Sham+vehicle, PBBI+vehicle, PBBI+cG-2-AllylP (30 mg/kg by oral gavage, 30 min post-injury, and again once daily until endpoint). AU procedures were approved by the Institutional Animal Care and Use Committee of WRAIR. Animals were housed in a facility accredited by the AAALAC.
cG-2-AllylP (or vehicle) was administered to the animals via oral gavage at a dose of 30 mg/kg.
cDNA was generated. From total RNA from individual animals using random primers. cDNA was plated unto a targeted PCR array produced by SA Biosciences and product was detected using SyBr green fluorescence. Ct levels were normalized to beta actin. Injury results were compared to sham to evaluate relative quantities (RQ) (n=6 per group).

interleukin 1 beta = assay: PBBI in rats: IL-1beta ELISA; type: in vivo; conditions: 30 mg/kg oral gavage once daily
Source text: as §1, with “AU procedures were approved by the Institutional Animal Care and Use Committee of WRAIR. Animals were housed in a facility accredited by the AAALAC.” left out
Target proteins were quantified with interleukin 1 beta (“IL-1beta”) (GenWay Biotech GWB-SKR107) and interleukin-6 (“IL-6”) (GenWay Biotech GWB-ZZD100) ELISAs according to manufacturer's instructions. Levels were calculated and normalized to total protein concentration as determined by BCA assay (n=9-10 per group).

[2] = test system: fmr1-knockout hippocampal neurons; assay: Dendritic spine density in hippocampal cell cultures; type: cell-based, mice
Procedure: Hippocampal cell cultures were prepared from wild type and fmr1-knockout fetal mice (14-16 days of gestation). Briefly, mice were kill by cervical dislocation under chloroform anesthesia, and dissociated hippocampal cells were plated in 13 mm multiwell vessels (Falcon Primaria). A plating medium of MEM-Eagle's salts (supplied glutamine free) supplemented with 10% fetal bovine serum was used. Cultures were kept at 37° C. in a humidified 3% CO2 atmosphere. After 3d in vitro, green fluorescent protein (GFP) was added to monitor dendritic spine morphogenesis during time-course of culture (Ethell and Yamaguchi, 1999; Ethell et al., 2001, Henkemeyer et al., 2003). The dendritic spines usually formed between 7 and 14 days in vitro (DVI). By 14 DIV most dendritic protrusions were spines. The mean (±SD) spine density was measured as number of spines per micrometer and experiments were run in triplicate.

[3] = test system: rats exposed to hypoxic-ischemic injury (HI); assay: Hypoxic-ischemic injury (HI), modified Levine model, tissue damage score; type: in vivo, Wistar rats
Source text: Adult rats (Wistar, 280-310 g, male) were used. The modified Levine model preparation and experimental procedures were used (Rice et al, 1981, Ann. Neurol. :9: 131-141; Guan et al J., 1993, Cereb. Blood Flow Metab.: 13(4): 609-16). These procedures in brief, consist of an HI injury induced by unilateral carotid artery ligation followed by inhalational asphyxia in the animals with an implanted lateral ventricular cannula. A guide cannula was stereotaxically placed on the top of the dura 1.3 mm to the right of the mid-line and 7.3 mm anterior to the interaural zero plane under halothane anaesthesia. The right carotid artery was double ligated two days after the cannulation. After 1 hour recovery from the anaesthesia, each of the rats were placed in an incubator where the humidity (90±5%) and temperature (31°±0.5° C.) were controlled for another hour, then exposed to hypoxia (6% oxygen) for 10 min. […]
Coronal sections 8 μm in thickness were cut from the striatum, cerebral cortex and hippocampus and were stained with thionin and acid fuchsin. The histological outcome was assessed at three levels: (1) the mid level of the striatum, (2) where the completed hippocampus first appeared and (3) the level where the ventral horn of the hippocampus just appears. The severity of tissue damage was scored in the striatum, cortex and the CA1-2, CA3, CA4 and dentate gyrus of the hippocampus. […]

## C=CC[C@]12CCCN1C(=O)CNC2=O [cG-2-AllylP, (8aS)-Allyl-hexahydropyrrolo[1,2-a]pyrazine-1,4-dione]
[1]; 24 hr. time point after PBBI
  Gria 4 mRNA expression: significantly increased Gria 4
[1]; after PBBI
  BDNF mRNA expression (trend): decreased BDNF
  Crem mRNA expression (trend): decreased Crem
  NTF3 mRNA expression (trend): decreased NTF3
  NTF4 mRNA expression (trend): decreased NTF4
  Pcdh8 mRNA expression (trend): decreased Pcdh8
  Pim1 mRNA expression (trend): decreased Pim1
  Ppp3ca mRNA expression (trend): increased Ppp3ca
Interleukin 1 beta; 3 days after PBBI
  IL1-beta levels: increased IL1-beta levels at 3 days after PBBI
Interleukin 1 beta; 7 days after PBBI
  IL1-beta levels: decreased levels of IL1-beta at 7 days after PBBI
[2]; 0.5 nM, n=3
  spine density (mean±SD): 0.36±0.02 number of spines per micromete
[2]; 5 nM
  spine density (mean±SD): 0.25±0.03 number of spines per micromete
[2]; 50 nM
  spine density (mean±SD): 0.27±0.10 number of spines per micromete
[3]; 2 ng icv 2 hours after HI, each brain region, vs vehicle p<0.001
  tissue damage score: significantly reduced the tissue damage in each brain region examined
[3]; 2, 4, 20, 100 ng icv, all other sites and all other doses
  neural damage after hypoxia/ischemia: lessened the neural damage effects of hypoxia/ischemia
